Patent US6214859A, “Ethylamine derivatives” (Fujimoto Brothers Co., Ltd., priority 1997, dated 2001)

Columns and labels:
[1] = system: dopamine release, substantia nigra; assay: Release of biogenic amines from brain tissue: dopamine, substantia nigra; assay type: in vivo, Wistar rats
Experimental: (§1) The method described in Life Sci., 56, 611-620 (1995) was used. After Wistar rats were decapitated, appropriate brain samples, which were striatun, substantia nigra, tuberculum olfactorium, locus coeruleus and raphe, were removed quickly and soaked in oxygenated (95% O2 and 5% CO2) Krebs solution at 37° C. The composition of Krebs solution was as follows in […]: NaCl 111, KCl 4.7, CaCl2 2.5, MgSO4 1.64, NaHCO3 25, KH2 PO4 1.2, glucose 11, 50 mg/l ascorbic add and 20 mg/l EDTA-2 Na. The preparations, soaked in one organ bath, were as follows: 1) four pieces of striatum (each halved), 2) four pieces of substantia nigra, 3) four pieces of tuberculum olfactorium; 4) eight pieces of locus coeruleus; 5) eight pieces of raphe. After incubation of the appropriate tissue for 20 min, the Krebs solution was replaced, the tissue soaked for 20 min in Krebs solution dissolving the compounds of this invention and the amount of biogenic amine released during this period of time was estimate. The compounds of this invention and PPAP, control compound, were dissolved in saline and were administered subcutaneously before 30 min to removing brain sample. For measuring noradrenaline and dopamine, samples were purified on 60 mg alumina containing micro columns (BDH Chemicals Ltd.) according to the method described in J. Pharmacol. Exp. Ther., 138, 360-372 (1962) For measuring serotonin, samples were purified on 15 mg Sephadex G-10 micro columns (Pharmacia). Dopamine, noradrenaline and serotonin were determined by high performance liquid chromatography (Waters 746 data module) with electrochemical detection (Waters 460 electrochemical detector). Waters Resolve 5μ Spherical C18 3.9×150 mm column was used as separating column and triethylamine-phosphate buffer (pH 5.2), containing 200 mg/l octane sulfonate sodium and 18 mg/l EDTA-2 Na with 6% acetonitrile, was used as mobile phase. The release amount of appropriate amine was noted as nmol/g tissue released for 20 min. deference of means tested by Student's t-test and significant level was set at P<.05.

serotonin release, raphe = assay: Release of biogenic amines from brain tissue: serotonin, raphe; assay type: in vivo, Wistar rats
Experimental: as §1

[2] = system: dopamine release, tuberculum olfactorium; assay: Release of biogenic amines from brain tissue: dopamine, tuberculum olfactorium; assay type: in vivo, Wistar rats
Experimental: as §1

[3] = system: noradrenaline release, locus coeruleus; assay: Release of biogenic amines from brain tissue: noradrenaline, locus coeruleus; assay type: in vivo, Wistar rats
Experimental: as §1

[4] = system: dopamine release, striatum; assay: Release of biogenic amines from brain tissue: dopamine, striatum; assay type: in vivo, Wistar rats
Experimental: as §1

human platelet MAO-B = biological target: T1, human platelet MAO-B (Homo sapiens, UniProt P27338); assay: biochemical; settings: 10^-5 M; read-out: Inhibition rate of MAO-B
T1 construct: The suspension was used as enzyme for MAO activity assay in blood platelets; from tissue; host or cells: human blood platelets (frozen, thawed and sonicated platelet rich plasma)
T1 sequence (P27338 1-520): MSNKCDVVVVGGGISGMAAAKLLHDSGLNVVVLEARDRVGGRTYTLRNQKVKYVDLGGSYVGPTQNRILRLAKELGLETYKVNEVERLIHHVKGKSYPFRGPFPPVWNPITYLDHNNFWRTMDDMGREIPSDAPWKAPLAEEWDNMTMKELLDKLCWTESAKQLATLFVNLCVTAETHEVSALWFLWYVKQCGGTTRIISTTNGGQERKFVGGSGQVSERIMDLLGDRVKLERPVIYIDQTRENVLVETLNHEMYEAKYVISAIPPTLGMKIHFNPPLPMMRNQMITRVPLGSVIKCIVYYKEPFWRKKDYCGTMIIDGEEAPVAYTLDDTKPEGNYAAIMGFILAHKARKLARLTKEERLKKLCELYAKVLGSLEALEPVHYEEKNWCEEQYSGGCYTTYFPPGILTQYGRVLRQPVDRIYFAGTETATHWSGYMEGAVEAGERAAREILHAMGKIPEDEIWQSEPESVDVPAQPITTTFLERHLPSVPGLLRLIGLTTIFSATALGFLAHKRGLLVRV
Experimental: Human blood added with 3.8% citric acid was centrifuged at 950 rpm for 10 min and platelet rich plasma (PRP) was obtained. The residual blood cell was centrifuged at 3,000 rpm for 10 min and platelet poor plasma (PPP) was obtained. After blood platelets were measured from a part of PRP, PRP and PPP were frozen at -20° C. They were thawed and were sonicated to be dispersed and suspended when MAO activity was measured. The suspension was used as enzyme for MAO activity assay in blood platelets. In addition, almost all of MAO in blood platelets have been known to be B type.
MAO-B activity was determined according to the method described in Biochem. Pharmacol., 14, 1684-1685 (1965). […] The mixture was incubated at 37° C. for 5 min. After 80 μl of PRP or PPP was added to it, the mixture was incubated at 37° C. for 20 min. Thereafter, 120 μl of substrate (0.33 mg/ml kynuramine dihydrobromide) was added thereto. After incubation at 37° C. for 30 min, 800 μl of 10% trichloroacetic acid were added to stop the reaction and the solution was centrifuged at 3,000 rpm for 10 min. To 1 ml of the supernatant, 2 ml of 1 N NaOH was added and fluorescence of the solution was measured at Ex 312 nm and Em 380 nm. PRP was prepared to 250,000 cell/μl as amounts of blood platelets with […] phosphate buffer solution and 4-hydroxyquinoline was used as standard for measurement.

[5] = system: rats reduced learning ability by tetrabenazine; assay: Conditioned avoidance task in the shuttle box (tetrabenazine-treated rats); assay type: in vivo, rat; settings: tetrabenazine 1 mg/kg s.c., significance and direction
Experimental: The method described in Life Sci., 58, 817-827 (1996) was used. The effects on conditioned avoidance reflex (CARs) was analyzed in the shuttle box using male and female rats (weighing 200-220 g) whose leaning abilities were reduced by treatment of tetrabenazine. The instrument was constructed, according to the device described in Psychopharmacologia 10, 1-5 (1966) by the Research Institute for Electrical Industry (Budapest, Hungary). The male and female rats (weighing 200-220 g) were trained to cross the berrier under the influence of a conditioned stimulus (CS) (light flash and buzzer sounds). […] And the performance which was not related to this condition was noted as an intersignal reaction (IR). The rats were trained with 100 trials per day for 5 days. One trial consisted of 15 sec intertrial interval. The saline solution of tetrabenazine was administered at a dose of 1 mg/kg subcutaneously before one hour prior to the test and then the solution of the compounds of this invention were administered at the doses of 1, 2, 2.5 and 5 mg/kg subcutaneously with the simultaneous administration of tetrabenazine. The nmbers of CARs, EFs and IRs were automatically counted and evaluated by multi-way analysis of variance (ANOVA).

[6] = Toxicity screening using primary cultured hepatocyte (LDH release); assay type: cell-based, rat; settings: rat, primary hepatocytes, 24 hr, control 0.5% saline or 0.5% DMSO, read-out: Percent control of LDH release
Experimental: The hepatocytes was prepared from rat liver by collagenase perfusion method and suspension containing 5×10^5 cells/ml were prepared. After cultivation for 24 hr, the suspension was exchanged to the William's Medium E (GIBCO BRL) containing 10 or 100 μM of the compounds of this invention. After cultivation for 24 hr, the activity of lactate dehydrogenase (LDH) released in the medium was measured.

Structure (SMILES)	Release of dopamine, substantia nigra ([1]; 1.00 mg/kg s.c.)	Release of serotonin, raphe (serotonin release, raphe; 1.00 mg/kg s.c.)	Release of dopamine, tuberculum olfactorium ([2]; 1.00 mg/kg s.c.)	Release of noradrenaline, locus coeruleus ([3]; 1.00 mg/kg s.c.)	Release of dopamine, striatum ([4]; 1.00 mg/kg s.c.)	inhibition at 10 µM (human platelet MAO-B) [%]	Condition Avoidance Reflex (CARs) ([5]; 1 mg/kg s.c.)	Condition Avoidance Reflex (CARs) ([5]; 5 mg/kg s.c.)	Escape Failures (EFs) ([5]; 5 mg/kg s.c.)	Release of dopamine, substantia nigra ([1]; 0.25 mg/kg s.c.)	Release of serotonin, raphe (serotonin release, raphe; 0.25 mg/kg s.c.)	Release of dopamine, tuberculum olfactorium ([2]; 0.25 mg/kg s.c.)	Release of noradrenaline, locus coeruleus ([3]; 0.25 mg/kg s.c.)	Release of dopamine, striatum ([4]; 0.25 mg/kg s.c.)	activity at 24 h, 10 µM [6] [%]	activity at 24 h, 100 µM [6] [%]	also measured
CCCC(Cc1ccc2ccccc2c1)NCC (stereo not shown) [Compound No. 6]	6.7 ± 0.26 nmol/g tissue, for 20 min	0.708 ± 0.07 nmol/g tissue, for 20 min	5.3 ± 0.19 nmol/g tissue, for 20 min	3.1 ± 0.05 nmol/g tissue, for 20 min	3.6 ± 0.12 nmol/g tissue, for 20 min	24.5	**** .Arrow-up bold.	**** .Arrow-up bold.	* .dwnarw.								Escape Failures (EFs) ([5]; 1 mg/kg s.c.): * .dwnarw.
CCCNC(CCC)Cc1cccc2c1OCO2.Cl (stereo not shown) [Compound No. 28, 1-(1,3-Benzodioxol-4-yl)-2-propylaminopentane Hydrochloride]	5.4 ± 0.27 nmol/g tissue, for 20 min	1.017 ± 0.06 nmol/g tissue, for 20 min	4.6 ± 0.22 nmol/g tissue, for 20 min	3.7 ± 0.10 nmol/g tissue, for 20 min	4.0 ± 0.18 nmol/g tissue, for 20 min	22.2	* .Arrow-up bold.	**** .Arrow-up bold.	*** .dwnarw.	6.1 ± 0.35 nmol/g tissue, for 20 min	1.031 ± 0.03 nmol/g tissue, for 20 min	3.8 ± 0.22 nmol/g tissue, for 20 min	3.6 ± 0.35 nmol/g tissue, for 20 min	3.4 ± 0.16 nmol/g tissue, for 20 min	93 ± 6.92	148 ± 6.55	Release of dopamine, substantia nigra ([1]; 5.00 mg/kg s.c.): 4.9 ± 0.17 nmol/g tissue, for 20 min; Release of serotonin, raphe (serotonin release, raphe; 5.00 mg/kg s.c.): 1.436 ± 0.01 nmol/g tissue, for 20 min; Release of dopamine, tuberculum olfactorium ([2]; 5.00 mg/kg s.c.): 3.1 ± 0.14 nmol/g tissue, for 20 min; Release of noradrenaline, locus coeruleus ([3]; 5.00 mg/kg s.c.): 3.9 ± 0.10 nmol/g tissue, for 20 min; Release of dopamine, striatum ([4]; 5.00 mg/kg s.c.): 3.1 ± 0.13 nmol/g tissue, for 20 min; Condition Avoidance Reflex (CARs) ([5]; 2.5 mg/kg s.c.): **** .Arrow-up bold.; Escape Failures (EFs) ([5]; 2.5 mg/kg s.c.): **** .dwnarw.
CCCNC(CCC)Cc1cccc2ccccc12 (stereo not shown) [Compound No. 5, 1-(1-Naphthyl)-2-propylaminopentane]	4.4 ± 0.16 nmol/g tissue, for 20 min	0.571 ± 0.01 nmol/g tissue, for 20 min	4.6 ± 0.13 nmol/g tissue, for 20 min	4.4 ± 0.50 nmol/g tissue, for 20 min	3.2 ± 0.14 nmol/g tissue, for 20 min	17.3				5.6 ± 0.18 nmol/g tissue, for 20 min	0.425 ± 0.02 nmol/g tissue, for 20 min	6.0 ± 0.16 nmol/g tissue, for 20 min	3.9 ± 0.25 nmol/g tissue, for 20 min	4.3 ± 0.14 nmol/g tissue, for 20 min	111 ± 4.02	195 ± 9.16	
